What all share (format): functional
For assay [1], the system named is ACHN. The assay can be described thus: Cytotoxicity against human ACHN cells assessed as cell growth at 0.01 uM after 48 hrs by SRB assay relative to control. The conditions noted are these: read-out: Activity. For orientation: Sulforhodamine B stains cellular protein and so reports cell mass.
Assay [2] concerns 786-0. The assay can be described thus: Cytotoxicity against human 786-O cells assessed as cell growth at 0.1 uM after 48 hrs by SRB assay relative to control. The following applies: 786-0, 48 h, read-out: Activity.
Assay [3] has as its system UO-31. The assay can be described thus: Cytotoxicity against human UO31 cells assessed as cell growth at 0.1 uM after 48 hrs by SRB assay relative to control. The conditions noted are these: UO-31, 48 h, read-out: Activity.
In assay [4] the test system is SF-295. The experiment in a line: Cytotoxicity against human SF295 cells assessed as cell growth at 1 uM after 48 hrs by SRB assay relative to control. The following applies: SF-295, 48 h, read-out: Activity.
The test system of assay [5] is CCRF-CEM. The assay can be described thus: Cytotoxicity against human CCRF-CEM cells assessed as cell growth at 100 uM after 48 hrs by SRB assay relative to control. The conditions noted are these: read-out: Activity.
The subject of assay [6] is K562. The experiment in a line: Cytotoxicity against human K562 cells assessed as cell growth at 100 uM after 48 hrs by SRB assay relative to control. The following applies: K562, 48 h, read-out: Activity.
In assay [7] the test system is HOP-62. The experiment in a line: Cytotoxicity against human HOP62 cells assessed as cell growth at 100 uM after 48 hrs by SRB assay relative to control. The conditions noted are these: HOP-62, 48 h, read-out: Activity.
Assay [8] deals with NCI-H522. The assay can be described thus: Cytotoxicity against human NCI-H522 cells assessed as cell growth at 100 uM after 48 hrs by SRB assay relative to control. The conditions noted are these: NCI-H522, 48 h, read-out: Activity.
Assay [9] relates to NCI-H322M. The assay can be described thus: Cytotoxicity against human NCI-H322M cells assessed as cell growth at 0.01 uM after 48 hrs by SRB assay relative to control. The conditions noted are these: read-out: Activity.
The test system of assay [10] is NCI-H322M. The assay can be described thus: Cytotoxicity against human NCI-H322M cells assessed as cell growth at 0.1 uM after 48 hrs by SRB assay relative to control. The conditions noted are these: read-out: Activity.
Assay [11] has as its system NCI-H322M. The experiment in a line: Cytotoxicity against human NCI-H322M cells assessed as cell growth at 1 uM after 48 hrs by SRB assay relative to control. The conditions noted are these: read-out: Activity.
The test system of assay [12] is NCI-H322M. The experiment in a line: Cytotoxicity against human NCI-H322M cells assessed as cell growth at 100 uM after 48 hrs by SRB assay relative to control. The conditions noted are these: read-out: Activity.
Assay [13] deals with NCI-H322M. The assay can be described thus: Cytotoxicity against human NCI-H322M cells after 48 hrs by SRB assay.
In assay [14] the test system is U-251. The experiment in a line: Cytotoxicity against human U251 cells assessed as cell growth at 0.01 uM after 48 hrs by SRB assay relative to control. The conditions noted are these: U-251, 48 h, read-out: Activity.
Assay [15] relates to U-251. The experiment in a line: Cytotoxicity against human U251 cells assessed as cell growth at 0.1 uM after 48 hrs by SRB assay relative to control. The following applies: U-251, 48 h, read-out: Activity.
Assay [16] relates to U-251. The assay can be described thus: Cytotoxicity against human U251 cells assessed as cell growth at 1 uM after 48 hrs by SRB assay relative to control. The following applies: U-251, 48 h, read-out: Activity.
Assay [17] concerns U-251. The experiment in a line: Cytotoxicity against human U251 cells assessed as cell growth at 100 uM after 48 hrs by SRB assay relative to control. The conditions noted are these: U-251, 48 h, read-out: Activity.
Assay [18] relates to U-251. The assay can be described thus: Cytotoxicity against human U251 cells after 48 hrs by SRB assay. The conditions noted are these: U-251, 48 h.
The test system of assay [19] is EKVX. The experiment in a line: Cytotoxicity against human EKVX cells assessed as cell growth at 0.01 uM after 48 hrs by SRB assay relative to control. The following applies: read-out: Activity.
Assay [20] has as its system OVCAR-4. The assay can be described thus: Cytotoxicity against human OVCAR4 cells assessed as cell growth at 0.01 uM after 48 hrs by SRB assay relative to control. The conditions noted are these: OVCAR-4, 48 h, read-out: Activity.
In assay [21] the test system is EKVX. The assay can be described thus: Cytotoxicity against human EKVX cells assessed as cell growth at 0.1 uM after 48 hrs by SRB assay relative to control. The following applies: read-out: Activity.
Assay [22] deals with OVCAR-4. The assay can be described thus: Cytotoxicity against human OVCAR4 cells assessed as cell growth at 0.1 uM after 48 hrs by SRB assay relative to control. The conditions noted are these: OVCAR-4, 48 h, read-out: Activity.
Assay [23] deals with EKVX. The assay can be described thus: Cytotoxicity against human EKVX cells assessed as cell growth at 1 uM after 48 hrs by SRB assay relative to control. The following applies: read-out: Activity.
The test system of assay [24] is OVCAR-4. The assay can be described thus: Cytotoxicity against human OVCAR4 cells assessed as cell growth at 1 uM after 48 hrs by SRB assay relative to control. The following applies: OVCAR-4, 48 h, read-out: Activity.
For assay [25], the system named is EKVX. The experiment in a line: Cytotoxicity against human EKVX cells assessed as cell growth at 100 uM after 48 hrs by SRB assay relative to control. The following applies: read-out: Activity.
The test system of assay [26] is OVCAR-4. The assay can be described thus: Cytotoxicity against human OVCAR4 cells assessed as cell growth at 100 uM after 48 hrs by SRB assay relative to control. The conditions noted are these: OVCAR-4, 48 h, read-out: Activity.
Assay [27] has as its system SK-OV-3. The assay can be described thus: Cytotoxicity against human SKOV3 cells assessed as cell growth at 100 uM after 48 hrs by SRB assay relative to control. The following applies: SK-OV-3, 48 h, read-out: Activity.
The subject of assay [28] is EKVX. The experiment in a line: Cytotoxicity against human EKVX cells after 48 hrs by SRB assay.
The test system of assay [29] is OVCAR-4. The experiment in a line: Cytotoxicity against human OVCAR4 cells after 48 hrs by SRB assay. The following applies: OVCAR-4, 48 h.
The mark [30] stands for this setting: read-out: LC50 (the source's name).

What is called GI50 is the concentration that inhibits growth by half. A lower GI50 goes with more potent growth inhibition. A word on the TGI: it is the concentration at which net growth stops. Read a high TGI as less potent growth arrest.

Regarding `N#CCCCCCn1cc(C2=C(c3cn(CCCCCC#N)c4ccccc34)C(=O)N(O)C2=O)c2ccccc21`, the growth at 0.01 µM in [1] amounted to 99%; in [9] it was 98%; in assay [14], 102%. Also, the growth at 0.1 µM in assay [2] amounted to 101%; in [3], 66%; in assay [10] it was 99%; in assay [15], 100%. The growth at 1 µM in assay [4] turned out to be 96%; in assay [11] it was 100%; in assay [16], 100%. Further, the growth at 100 µM is 3% in assay [5]; 3% in assay [6]; 4% in assay [7]; -30% in [8]; -4% in [12]; 5% in assay [17]. The 50% growth inhibitory concentration (GI50) in assay [13] turned out to be 8.53 µM; in assay [18], 4.65 µM. Also, the values for the concentration for total growth inhibition (TGI) in [13] and in assay [18] were 84.6 µM and > 100 µM, respectively. The CC50 in assay [13] (setting [30]) and in assay [18] (setting [30]) was > 100 µM each time.

For `Cn1cc(C2=C(c3cn(C)c4ncccc34)C(=O)NC2=O)c2ccccc21`, the growth at 0.01 µM in assay [19] turned out to be 91%; in assay [20] it was 102%; in assay [1] it was 100%. Further, the growth at 0.1 µM worked out at 84% in assay [21], 87% in assay [22], 101% in [2] and 89% in [3]. Besides, the growth at 1 µM in assay [23] was 65%; in assay [4], 85%; in [24] it was 85%. The growth at 100 µM is 2% in assay [5]; 2% in [6]; -42% in [25]; -17% in assay [7]; -30% in assay [8]; -3% in assay [26]. For the same molecule, the growth at 100 µM in [27] is -7%. The GI50 in [28] was found to be 1.83 µM; in assay [29] it was 4.86 µM. Further, the total growth inhibition concentration (TGI) stood at 15.1 µM in assay [28] and 83.1 µM in assay [29]. Besides, the CC50 in assay [28] (setting [30]) and in assay [29] (setting [30]) was > 100 µM each time.

The record behind these values is ChEMBL document CHEMBL4229455, “Synthesis and anticancer activity of novel bisindolylhydroxymaleimide derivatives with potent GSK-3 kinase inhibition” (Bioorg Med Chem, 2018).
